# Laboratory results: patent US20250017940A1, “SELECTIVE PEPTIDOMIMETIC MODULATORS OF CAV2.2 (N-TYPE) VOLTAGE-GATED CALCIUM CHANNELS AND USES THEREOF” (New York University, priority 2023, published 2025)
# Tests used:
# Cav2.2-CRMP2 interaction = target: T1, Cav2.2-CRMP2 interaction (Mus musculus, UniProt O55017); assay: CRMP2 immunoprecipitation to detect Cav2.2 in CAD cells; type: cell-based
# T1 construct: a mouse neuronal cell line expressing both CRMP2 and Cav2.2; endogenous in cells; host or cells: mouse CAD cells (ECACC Cat #08100805)
# T1 sequence (O55017 whole entry): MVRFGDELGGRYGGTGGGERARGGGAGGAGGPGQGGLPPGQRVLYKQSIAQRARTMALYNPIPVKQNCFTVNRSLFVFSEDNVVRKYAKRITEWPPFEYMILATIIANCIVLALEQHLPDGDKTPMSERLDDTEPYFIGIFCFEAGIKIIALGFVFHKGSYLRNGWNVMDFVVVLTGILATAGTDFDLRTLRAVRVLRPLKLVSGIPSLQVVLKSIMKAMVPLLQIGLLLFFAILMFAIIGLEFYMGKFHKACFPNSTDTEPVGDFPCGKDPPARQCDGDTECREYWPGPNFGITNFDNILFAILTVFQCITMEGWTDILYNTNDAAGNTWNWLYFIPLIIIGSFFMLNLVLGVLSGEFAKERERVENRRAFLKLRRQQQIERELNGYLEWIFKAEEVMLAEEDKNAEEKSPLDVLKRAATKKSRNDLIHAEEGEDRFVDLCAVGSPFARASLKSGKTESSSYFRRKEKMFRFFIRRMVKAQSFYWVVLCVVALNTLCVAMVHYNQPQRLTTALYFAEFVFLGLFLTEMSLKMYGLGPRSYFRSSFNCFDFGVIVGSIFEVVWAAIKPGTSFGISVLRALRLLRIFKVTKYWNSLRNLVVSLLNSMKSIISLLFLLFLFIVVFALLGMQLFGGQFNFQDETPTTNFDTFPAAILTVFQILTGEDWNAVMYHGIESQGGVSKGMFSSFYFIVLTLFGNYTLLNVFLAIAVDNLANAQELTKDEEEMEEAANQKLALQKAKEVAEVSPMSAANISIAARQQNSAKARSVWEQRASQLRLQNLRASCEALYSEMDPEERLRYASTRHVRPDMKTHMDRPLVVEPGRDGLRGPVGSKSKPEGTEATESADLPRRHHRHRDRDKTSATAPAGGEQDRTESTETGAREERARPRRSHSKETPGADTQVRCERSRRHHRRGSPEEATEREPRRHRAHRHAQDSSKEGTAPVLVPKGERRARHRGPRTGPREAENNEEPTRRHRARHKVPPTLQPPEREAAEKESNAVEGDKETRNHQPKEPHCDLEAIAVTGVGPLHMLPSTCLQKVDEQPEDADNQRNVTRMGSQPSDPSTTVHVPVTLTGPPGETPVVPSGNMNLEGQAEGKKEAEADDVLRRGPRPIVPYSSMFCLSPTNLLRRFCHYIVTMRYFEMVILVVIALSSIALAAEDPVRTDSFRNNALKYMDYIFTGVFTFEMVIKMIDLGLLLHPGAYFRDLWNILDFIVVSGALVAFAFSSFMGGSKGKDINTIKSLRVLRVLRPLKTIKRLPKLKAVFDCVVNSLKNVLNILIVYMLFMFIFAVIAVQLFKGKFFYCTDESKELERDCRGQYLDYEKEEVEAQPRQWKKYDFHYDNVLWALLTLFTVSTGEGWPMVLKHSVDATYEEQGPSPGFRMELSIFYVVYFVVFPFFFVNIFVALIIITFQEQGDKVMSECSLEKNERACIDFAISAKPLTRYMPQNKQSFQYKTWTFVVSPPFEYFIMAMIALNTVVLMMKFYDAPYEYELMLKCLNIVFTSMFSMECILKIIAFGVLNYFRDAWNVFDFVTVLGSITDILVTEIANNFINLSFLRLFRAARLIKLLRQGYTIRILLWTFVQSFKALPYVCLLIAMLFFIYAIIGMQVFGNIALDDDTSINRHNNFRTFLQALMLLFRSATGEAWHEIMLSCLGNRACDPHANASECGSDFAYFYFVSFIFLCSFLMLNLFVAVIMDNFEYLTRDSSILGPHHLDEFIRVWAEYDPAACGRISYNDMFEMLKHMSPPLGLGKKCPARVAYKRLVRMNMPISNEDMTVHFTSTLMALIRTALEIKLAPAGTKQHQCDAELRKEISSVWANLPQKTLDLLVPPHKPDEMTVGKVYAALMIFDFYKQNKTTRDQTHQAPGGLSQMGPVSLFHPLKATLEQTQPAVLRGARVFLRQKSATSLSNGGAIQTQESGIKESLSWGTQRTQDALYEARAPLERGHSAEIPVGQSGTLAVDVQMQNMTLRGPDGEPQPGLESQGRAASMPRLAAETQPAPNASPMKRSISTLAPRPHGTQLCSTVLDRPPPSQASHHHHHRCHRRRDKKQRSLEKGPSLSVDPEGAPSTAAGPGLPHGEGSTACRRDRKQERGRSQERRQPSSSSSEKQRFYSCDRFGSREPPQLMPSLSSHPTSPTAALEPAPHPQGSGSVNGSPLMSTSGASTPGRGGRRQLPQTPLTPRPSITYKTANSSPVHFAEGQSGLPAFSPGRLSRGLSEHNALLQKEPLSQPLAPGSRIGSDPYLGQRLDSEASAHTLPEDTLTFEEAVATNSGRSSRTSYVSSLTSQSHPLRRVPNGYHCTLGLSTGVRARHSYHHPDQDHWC
# Method: Mouse neuron derived Cathecholamine A differentiated CAD cells (ECACC Cat #08100805, RRID: CVCL_0199) were grown in standard cell culture conditions, 37° C. in 5% (vol/vol) CO2. The cells were maintained in DMEM/F12 media supplemented with 10% (vol/vol) FBS (HyClone) and 1% penicillin/streptomycin sulfate from 10,000 μg/mL stock.
# CAD cells were incubated overnight with a vehicle (0.1% DMSO) or CBD3063 (20 μM). The next day the cells were lysed into the IP buffer containing 20 mM Tris-HCl pH=7.4, 50 mM NaCl, 2 mM MgCl2, 10 mM N-Ethylmaleimide (NEM), 1% (vol/vol) NP-40, 0.5% (mass/vol) sodium deoxycholate, 0.1% (mass/vol) sodium dodecyl sulfate (SDS) with protease inhibitors (Cat #B14002, Biotool, Houston, TX), phosphatase inhibitors (Cat #B15002, Biotool, Houston, TX) and Nuclease (Cat #88701, Thermo Fisher Scientific, Waltham, MA). Total protein concentration was determined by BCA protein assay kit (Cat #PI23225, Thermo Fisher Scientific, Waltham, MA). Five hundred micrograms of total protein were incubated overnight with 2 μg of CRMP2 antibody (Cat #C2993, Sigma-Aldrich, St. Louis, MO) at 4° C. under gentle agitation. Protein G magnetic beads (Cat #10004D, Thermo Fisher Scientific, Waltham, MA), pre-equilibrated with the immunoprecipitation buffer, were then added to the lysates and incubated for 2 hours at 4° C. to capture immuno-complexes. […]
# Cav2.2 = target: T2, Cav2.2 (Rattus norvegicus, UniProt Q02294); assay: Immunocytochemistry / confocal microscopy of Cav2.2 membrane expression in DRG neurons; type: cell-based; conditions: 20 μM overnight (DMSO: 3.59±0.42)
# T2 construct: Recordings were obtained from acutely dissociated DRG neurons; endogenous in cells; host or cells: primary rat DRG neurons
# Method: Lumbar DRGs were dissected from 100 g female Sprague-Dawley rats using procedures as described previously (Gomez et al., 2022). DRGs were excised and placed in sterile DMEM (Cat #11965; Thermo Fisher Scientific, Waltham, MA). The ganglia were dissociated enzymatically with collagenase type I (5 mg/mL, Cat #LS004194; Worthington) and neutral protease (3.125 mg/mL, Cat #LS02104; Worthington, Lakewood, NJ) for 50 minutes at 37° C. under gentle agitation. The dissociated cells were then centrifuged (800 rpm for 5 min) and resuspended in DMEM containing 1% penicillin/streptomycin sulfate (Cat #15140, Life Technologies, Carlsbad, CA), 10% fetal bovine serum [HyClone]), and 30 ng/mL nerve growth factor (Cat #N2513, Millipore Sigma, St. Louis, MO). The cells were seeded on poly-D-lysine (Cat #P6407, Millipore Sigma, St. Louis, MO) and laminin (Cat #sc-29012, Santa Cruz Biotechnology, Dallas, TX) -coated 12- or 15-mm glass coverslips and incubated at 37° C. All cultures were used within 48 hours.
# Immunocytochemistry was performed on DRG neurons incubated with vehicle (0.1% DMSO) or CBD3063 (20 μM) overnight. […] For all quantitative comparisons among cells under differing experimental conditions, camera gain and other relevant settings were kept constant. The freeware image analysis program Image J (http://rsb.info.nih.gov/ij/) was used for quantifying cellular fluorescence. […]
compound,measurement,setting,value
"CC(=O)N[C@@H]1CCCN(C(=O)NCCCNc2ccccn2)C1 [CBD3063, (3R)-3-acetamido-N-[3-(pyridin-2-ylamino)propyl]piperidine-1-carboxamide]",relative Cav2.2 binding to CRMP2,Cav2.2-CRMP2 interaction; 20 μM overnight (DMSO: 1.00±0.05),0.64±0.02
same,reduction in the level of Cav2.2 protein immunoprecipitated by CRMP2,"Cav2.2-CRMP2 interaction; 20 μM overnight, versus control",~35%
same,Cav2.2 membrane/cytosol ratio,Cav2.2,1.64±0.10
